Literature values as cited in patent publication US20100048598A1, “TOPICAL COMPOSITIONS COMPRISING 5-ALPHA REDUCTASE INHIBITORS” (priority 2008, published 2010).

Columns and labels:
DHT = conditions: daily oral 1 mg dose
androgenic alopecia = conditions: 1 mg/day, treated men
type II 5α-reductase = target: T1, type II 5α-reductase (Homo sapiens, UniProt P31213); conditions: relative to finasteride
T1 sequence (P31213 1-254): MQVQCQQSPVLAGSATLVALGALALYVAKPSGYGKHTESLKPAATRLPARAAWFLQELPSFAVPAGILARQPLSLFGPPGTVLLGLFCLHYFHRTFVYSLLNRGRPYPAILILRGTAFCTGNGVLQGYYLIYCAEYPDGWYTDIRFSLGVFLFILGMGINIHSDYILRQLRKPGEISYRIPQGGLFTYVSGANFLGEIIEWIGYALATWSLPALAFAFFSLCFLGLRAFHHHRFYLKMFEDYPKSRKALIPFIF

type I 5α-reductase = target: T2, type I 5α-reductase (Homo sapiens, UniProt P18405); conditions: relative to finasteride
T2 sequence (P18405 1-259): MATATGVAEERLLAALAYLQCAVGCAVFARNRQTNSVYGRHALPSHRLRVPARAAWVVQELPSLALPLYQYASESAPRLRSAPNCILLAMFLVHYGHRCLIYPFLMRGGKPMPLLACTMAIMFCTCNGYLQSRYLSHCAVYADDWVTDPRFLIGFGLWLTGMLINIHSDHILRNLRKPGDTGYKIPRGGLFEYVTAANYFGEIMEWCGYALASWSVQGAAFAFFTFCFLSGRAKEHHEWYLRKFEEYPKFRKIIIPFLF

[1] = orally administered

Row | SMILES | scalp DHT reduction (DHT) [%] | serum DHT reduction (DHT) [%] | progression of hair loss and hair growth compared with control group (androgenic alopecia) | potency at inhibiting type II 5α-reductase as compared with finasteride (type II 5α-reductase) | potency at inhibiting the type I isoform as compared with finasteride (type I 5α-reductase) | solubility in ethanol (ethanol) | solubility in methanol (methanol) | solubility in polyethylene glycol 400 (polyethylene glycol 400) | solubility in water (water) | Absolute bioavailability [1] | Absolute bioavailability, range ([1]; range in brackets)
1 | CC(C)(C)NC(=O)[C@H]1CC[C@H]2[C@@H]3CC[C@H]4NC(=O)C=C[C@]4(C)[C@H]3CC[C@]12C [Finasteride] | 64 | 68 | slowed the progression of hair loss and increased hair growth |  |  |  |  |  |  |  | 
2 | C[C@]12C=CC(=O)N[C@@H]1CC[C@@H]1[C@@H]2CC[C@]2(C)[C@@H](C(=O)Nc3cc(C(F)(F)F)ccc3C(F)(F)F)CC[C@@H]12 [Dutasteride, (5α,17β)-N-{2,5-bis(trifluoromethyl)phenyl}-3-oxo-4-azaandrost-1-ene-17-carboxamide] |  |  |  | approximately 3 times | more than 100 times | soluble | soluble | soluble | insoluble | about 60% | 40%-94%
